Drawing on patent publication US12668585B2, “Substituted pyrimidinyl-pyrazoles as CDK2 inhibitors” (BLUEPRINT MEDICINES CORPORATION, priority 2021, dated 2026), this text covers IC50 for 25 compounds.

Read-outs that look alike come from different tables or passages of the source.

The target of one experiment is T1, CDK1/Cyclin B1, GST-tag (Homo sapiens, UniProt P06493).
T1 construct: GST; purchased BPS 40454
The experiment is described as follows: Biochemical CDK inhibition assay (Caliper mobility shift), CDK1/Cyclin B1. How it is done: (§1) Inhibitory effects of the compounds of the disclosure were measured in biochemical assays that measure the enzymatic phosphorylation activity of CDK enzyme in complex of Cyclin proteins phosphorylates 7.5 micromolar fluorescently labelled peptide substrate, 5-FAM-QSPKKG-CONH2, (FL-Peptide 18, Perkin Elmer, 760362) in the presence of adenosine-5′-triphosphate (ATP) and varying concentrations of the test compound in 100 mM 2-[4-(2-hydroxyethyl)piperazin-1-yl] ethanesulfonic acid (HEPES), pH 7.5, 10 mM MgCl2, 0.015% Brij-35, 1 mM dithiothreitol (DTT), 1.0% dimehylsulfoxide (DMSO). […] Reactions proceeded until between 10% to 20% total peptides were phosphorylated at room temperature (25° C.) and were terminated with 35 mM 2,2′,2″,2′″-(ethane-1,2-diyldinitrilo)tetraacetic acid (EDTA). Product was detected using the Caliper mobility shift detection method where the phosphorylated peptide (product) and substrate were electrophoretically separated and measured. Percent activity was plotted against log concentration of compound and points to generate an apparent IC50. The following CDK enzymes in complex with different cyclin proteins were used in these assays: • CDK1/Cyclin B1, GST-tag (BPS, 40454), 1.5 nM used in the assay • CDK2/Cyclin E (Eurofins, 14-475), 1.25 nM used in the assays
(§2) For inhibitory activity against CDK2/Cyclin E mutant, the following designations are used: ≤10 nM=A; >10-20 nM=B; >20-30 nM=C; >30-100 nM=D and >100=E. For inhibition CDK1/Cyclin B1, GST-tag: ≥500 nM=A; <100-500 nM=B; <100 nM=C.

Another experiment has as its target T2, CDK2/Cyclin E (Homo sapiens, UniProt P24941).
T2 construct: purchased Eurofins 14-475
The experiment is described as follows: Biochemical CDK inhibition assay (Caliper mobility shift), CDK2/Cyclin E. Particulars: read-out: CDK2/cyclin E1 IC50. The protocol:
as §1, §2

T1 sequence (P06493 whole entry): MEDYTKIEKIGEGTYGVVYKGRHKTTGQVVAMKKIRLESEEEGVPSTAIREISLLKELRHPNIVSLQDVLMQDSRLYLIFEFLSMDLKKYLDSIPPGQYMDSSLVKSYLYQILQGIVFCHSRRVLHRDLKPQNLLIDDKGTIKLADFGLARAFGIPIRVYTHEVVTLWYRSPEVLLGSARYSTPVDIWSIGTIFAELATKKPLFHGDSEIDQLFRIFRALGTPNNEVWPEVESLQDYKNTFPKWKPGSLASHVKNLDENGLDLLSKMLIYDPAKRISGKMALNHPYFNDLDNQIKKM
T1 sequence (P14635 whole entry partner): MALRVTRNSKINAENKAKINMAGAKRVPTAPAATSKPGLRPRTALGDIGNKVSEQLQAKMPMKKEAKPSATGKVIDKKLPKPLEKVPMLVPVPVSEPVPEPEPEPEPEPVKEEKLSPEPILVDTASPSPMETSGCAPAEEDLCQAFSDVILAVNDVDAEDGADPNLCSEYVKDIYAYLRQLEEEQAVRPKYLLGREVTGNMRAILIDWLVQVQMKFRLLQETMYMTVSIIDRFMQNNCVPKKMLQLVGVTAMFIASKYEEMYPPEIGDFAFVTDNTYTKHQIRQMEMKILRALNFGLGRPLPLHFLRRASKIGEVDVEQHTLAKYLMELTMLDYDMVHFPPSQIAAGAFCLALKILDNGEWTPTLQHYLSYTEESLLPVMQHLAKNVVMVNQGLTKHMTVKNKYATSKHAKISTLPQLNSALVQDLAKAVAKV

Regarding “3-fluoro-4-((4-(1-(2-hydroxyethyl)-1H-pyrazol-4-yl)-5-(trifluoromethyl)pyrimidin-2-yl)amino)benzenesulfonamide or 3-fluoro-4-((2-(1-(2-hydroxyethyl)-1H-pyrazol-4-yl)-5-(trifluoromethyl)pyrimidin-4-yl)amino)benzenesulfonamide [Example 33]”, the IC50 at CDK1/Cyclin B1, GST-tag (apparent IC50, 1.5 nM enzyme, 1.0 mM ATP or ATP Km, 7.5 micromolar FL-Peptide 18, 25° C.) was ≥ 500 nM; on CDK2/Cyclin E (apparent IC50, 1.25 nM enzyme, 1.0 mM ATP or ATP Km, 7.5 micromolar FL-Peptide 18, 25° C.) it was 10 to 20 nM.

`C[C@H](n1cc(-c2nc(Nc3ccc(S(N)(=O)=O)cc3F)ncc2C(F)(F)F)cn1)C(C)(C)O` (single isomer, unassigned) [Example 6, (S)-3-fluoro-4-((4-(1-(3-hydroxy-3-methylbutan-2-yl)-1H-pyrazol-4-yl)-5-(trifluoromethyl)pyrimidin-2-yl)amino)benzenesulfonamide or (R)-3-fluoro-4-((4-(1-(3-hydroxy-3-methylbutan-2-yl)-1H-pyrazol-4-yl)-5-(trifluoromethyl)pyrimidin-2-yl)amino)benzenesulfonamide]: the IC50 was < 100 nM at CDK1/Cyclin B1, GST-tag and ≤ 10 nM on CDK2/Cyclin E.

On to `C[C@@H](n1cc(-c2nc(Nc3ccc(S(N)(=O)=O)cc3F)ncc2C(F)(F)F)cn1)C(C)(C)O` (single isomer, unassigned) [Example 7, (R)-3-fluoro-4-((4-(1-(3-hydroxy-3-methylbutan-2-yl)-1H-pyrazol-4-yl)-5-(trifluoromethyl)pyrimidin-2-yl)amino)benzenesulfonamide or (S)-3-fluoro-4-((4-(1-(3-hydroxy-3-methylbutan-2-yl)-1H-pyrazol-4-yl)-5-(trifluoromethyl)pyrimidin-2-yl)amino)benzenesulfonamide], for which the IC50 at CDK1/Cyclin B1, GST-tag is 100 to 500 nM; at CDK2/Cyclin E, ≤ 10 nM.

For `C[C@H](O)[C@H](C)n1cc(-c2nc(Nc3ccc(S(N)(=O)=O)cc3F)ncc2C(F)(F)F)cn1` (single isomer, unassigned) [Example 9], the IC50 at CDK1/Cyclin B1, GST-tag was 100 to 500 nM; on CDK2/Cyclin E, ≤ 10 nM.

On to `C[C@@H](O)[C@H](C)n1cc(-c2nc(Nc3ccc(S(N)(=O)=O)cc3F)ncc2C(F)(F)F)cn1` (single isomer, unassigned) [Example 13], for which the IC50 was 100 to 500 nM at CDK1/Cyclin B1, GST-tag and ≤ 10 nM at CDK2/Cyclin E.

Consider `C[C@H](O)[C@@H](C)n1cc(-c2nc(Nc3ccc(S(N)(=O)=O)cc3F)ncc2C(F)(F)F)cn1` (single isomer, unassigned) [Example 15], for which the IC50 was 100 to 500 nM on CDK1/Cyclin B1, GST-tag and ≤ 10 nM on CDK2/Cyclin E.

As for `C[C@H]([C@@H](C)O)n1cc(-c2nc(Nc3ccc(S(N)(=O)=O)cc3F)ncc2C(F)(F)F)cn1` (single isomer, unassigned) [Example 25], the IC50 is 100 to 500 nM on CDK1/Cyclin B1, GST-tag and ≤ 10 nM at CDK2/Cyclin E.

In the case of `Cc1cc(S(N)(=O)=O)ccc1Nc1ncc(C(F)(F)F)c(-c2cnn(CC(C)(C)O)c2)n1` [Example 2, 4-((4-(1-(2-hydroxy-2-methylpropyl)-1H-pyrazol-4-yl)-5-(trifluoromethyl)pyrimidin-2-yl)amino)-3-methylbenzenesulfonamide], the IC50 on CDK1/Cyclin B1, GST-tag was 100 to 500 nM; on CDK2/Cyclin E, ≤ 10 nM.

With `CC(C)(O)Cn1cc(-c2nc(Nc3ccc(S(N)(=O)=O)cc3)ncc2Cl)cn1` [Example 3, 4-((5-chloro-4-(1-(2-hydroxy-2-methylpropyl)-1H-pyrazol-4-yl)pyrimidin-2-yl)amino)benzenesulfonamide], the IC50 is < 100 nM on CDK1/Cyclin B1, GST-tag and ≤ 10 nM at CDK2/Cyclin E.

`CC(C)(O)Cn1cc(-c2nc(Nc3ccc(S(N)(=O)=O)cc3)ncc2C(F)F)cn1` [Example 4, 4-((5-(difluoromethyl)-4-(1-(2-hydroxy-2-methylpropyl)-1H-pyrazol-4-yl)pyrimidin-2-yl)amino)benzenesulfonamide]: the IC50 was < 100 nM on CDK1/Cyclin B1, GST-tag and ≤ 10 nM on CDK2/Cyclin E.

On to `CC(C)(O)Cn1cc(-c2nc(Nc3ccc(S(N)(=O)=O)cc3)ncc2C(F)(F)F)cn1` [Example 5, 4-((4-(1-(2-hydroxy-2-methylpropyl)-1H-pyrazol-4-yl)-5-(trifluoromethyl)pyrimidin-2-yl)amino)benzenesulfonamide], for which the IC50 was < 100 nM on CDK1/Cyclin B1, GST-tag and ≤ 10 nM at CDK2/Cyclin E.

On to `CC(C)(O)Cn1cc(-c2nc(Nc3ccc(S(N)(=O)=O)cc3)ncc2C#N)cn1` [Example 8, 4-((5-cyano-4-(1-(2-hydroxy-2-methylpropyl)-1H-pyrazol-4-yl)pyrimidin-2-yl)amino)benzenesulfonamide], for which the IC50 was < 100 nM at CDK1/Cyclin B1, GST-tag and ≤ 10 nM at CDK2/Cyclin E.

In the case of `CC(C)(O)Cn1cc(-c2nc(Nc3ccc(S(N)(=O)=O)cc3F)ncc2C(F)F)cn1` [Example 11, 4-((5-(difluoromethyl)-4-(1-(2-hydroxy-2-methylpropyl)-1H-pyrazol-4-yl)pyrimidin-2-yl)amino)-3-fluorobenzenesulfonamide], the IC50 on CDK1/Cyclin B1, GST-tag is 100 to 500 nM; on CDK2/Cyclin E, ≤ 10 nM.

`Cc1cc(S(N)(=O)=O)ccc1Nc1ncc(Cl)c(-c2cnn(CC(C)(C)O)c2)n1` [Example 14]: the IC50 on CDK1/Cyclin B1, GST-tag is < 100 nM; at CDK2/Cyclin E, ≤ 10 nM.

For the compound `NS(=O)(=O)c1ccc(Nc2ncc(C(F)(F)F)c(-c3cnn(C4(CO)CC4)c3)n2)c(F)c1` [Example 16, 3-fluoro-4-((4-(1-(1-(hydroxymethyl)cyclopropyl)-1H-pyrazol-4-yl)-5-(trifluoromethyl)pyrimidin-2-yl)amino)benzenesulfonamide], the IC50 was 100 to 500 nM on CDK1/Cyclin B1, GST-tag and ≤ 10 nM at CDK2/Cyclin E.

`Cc1cnc(Nc2ccc(S(N)(=O)=O)cc2)nc1-c1cnn(CC(C)(C)O)c1` [Example 17, 4-((4-(1-(2-hydroxy-2-methylpropyl)-1H-pyrazol-4-yl)-5-methylpyrimidin-2-yl)amino)benzenesulfonamide]: the IC50 on CDK1/Cyclin B1, GST-tag was 100 to 500 nM; on CDK2/Cyclin E, ≤ 10 nM.

In the case of `CC(C)(O)Cn1cc(-c2nc(Nc3ccc(S(N)(=O)=O)cc3)ncc2F)cn1` [Example 18, 4-((5-fluoro-4-(1-(2-hydroxy-2-methylpropyl)-1H-pyrazol-4-yl)pyrimidin-2-yl)amino)benzenesulfonamide], the IC50 at CDK1/Cyclin B1, GST-tag was < 100 nM; at CDK2/Cyclin E, ≤ 10 nM.

`CC(C)(O)Cn1cc(-c2nc(Nc3ccc(S(N)(=O)=O)cc3F)ncc2C#N)cn1` [Example 19, 4-((5-cyano-4-(1-(2-hydroxy-2-methylpropyl)-1H-pyrazol-4-yl)pyrimidin-2-yl)amino)-3-fluorobenzenesulfonamide]: the IC50 on CDK1/Cyclin B1, GST-tag is 100 to 500 nM; on CDK2/Cyclin E, ≤ 10 nM.

Regarding `C[C@@H](O)Cn1cc(-c2nc(Nc3ccc(S(N)(=O)=O)cc3F)ncc2C(F)(F)F)cn1` [Example 20, (R)-3-fluoro-4-((4-(1-(2-hydroxypropyl)-1H-pyrazol-4-yl)-5-(trifluoromethyl)pyrimidin-2-yl)amino)benzenesulfonamide], the IC50 on CDK1/Cyclin B1, GST-tag was 100 to 500 nM; on CDK2/Cyclin E it was ≤ 10 nM.

For the compound `Cc1c(S(N)(=O)=O)ccc(Nc2ncc(C(F)(F)F)c(-c3cnn(CC(C)(C)O)c3)n2)c1F` [Example 21, 3-fluoro-4-((4-(1-(2-hydroxy-2-methylpropyl)-1H-pyrazol-4-yl)-5-(trifluoromethyl)pyrimidin-2-yl)amino)-2-methylbenzenesulfonamide], the IC50 on CDK1/Cyclin B1, GST-tag was 100 to 500 nM; at CDK2/Cyclin E it was ≤ 10 nM.

For `CC(C)(CO)n1cc(-c2nc(Nc3ccc(S(N)(=O)=O)cc3F)ncc2C(F)(F)F)cn1` [Example 22, 3-fluoro-4-((4-(1-(1-hydroxy-2-methylpropan-2-yl)-1H-pyrazol-4-yl)-5-(trifluoromethyl)pyrimidin-2-yl)amino)benzenesulfonamide], the IC50 at CDK1/Cyclin B1, GST-tag was 100 to 500 nM; at CDK2/Cyclin E, ≤ 10 nM.

With `CC(C)(O)Cn1cc(-c2nc(Nc3ccc(S(N)(=O)=O)cc3Cl)ncc2Cl)cn1` [Example 23, 3-chloro-4-((5-chloro-4-(1-(2-hydroxy-2-methylpropyl)-1H-pyrazol-4-yl)pyrimidin-2-yl)amino)benzenesulfonamide], the IC50 on CDK1/Cyclin B1, GST-tag is 100 to 500 nM; at CDK2/Cyclin E, ≤ 10 nM.

Regarding `CCc1cnc(Nc2ccc(S(N)(=O)=O)cc2)nc1-c1cnn(CC(C)(C)O)c1` [Example 24, 4-((5-ethyl-4-(1-(2-hydroxy-2-methylpropyl)-1H-pyrazol-4-yl)pyrimidin-2-yl)amino)benzenesulfonamide], the IC50 at CDK1/Cyclin B1, GST-tag was 100 to 500 nM; on CDK2/Cyclin E, ≤ 10 nM.

For the compound `COc1cc(S(N)(=O)=O)ccc1Nc1ncc(C(F)(F)F)c(-c2cnn(CC(C)(C)O)c2)n1` [Example 27, 4-((4-(1-(2-hydroxy-2-methylpropyl)-1H-pyrazol-4-yl)-5-(trifluoromethyl)pyrimidin-2-yl)amino)-3-methoxybenzenesulfonamide], the IC50 is 100 to 500 nM at CDK1/Cyclin B1, GST-tag and ≤ 10 nM on CDK2/Cyclin E.

With `COc1cc(S(N)(=O)=O)ccc1Nc1ncc(Cl)c(-c2cnn(CC(C)(C)O)c2)n1` [Example 28, 4-((5-chloro-4-(1-(2-hydroxy-2-methylpropyl)-1H-pyrazol-4-yl)pyrimidin-2-yl)amino)-3-methoxybenzenesulfonamide], the IC50 is 100 to 500 nM on CDK1/Cyclin B1, GST-tag and ≤ 10 nM on CDK2/Cyclin E.
